Data taken from patent publication US20050164370A1 (priority 2003, published 2005).

Tests used:
cytokinin receptor AHK2 = molecular target: T1, cytokinin receptor AHK2 (Arabidopsis thaliana, UniProt Q9C5U2); details: TM182-AHK2, DOLU+Glu agar, 1 nM to 100 μM tested, 30° C. for 30 hours
T1 sequence (Q9C5U2 1-1176): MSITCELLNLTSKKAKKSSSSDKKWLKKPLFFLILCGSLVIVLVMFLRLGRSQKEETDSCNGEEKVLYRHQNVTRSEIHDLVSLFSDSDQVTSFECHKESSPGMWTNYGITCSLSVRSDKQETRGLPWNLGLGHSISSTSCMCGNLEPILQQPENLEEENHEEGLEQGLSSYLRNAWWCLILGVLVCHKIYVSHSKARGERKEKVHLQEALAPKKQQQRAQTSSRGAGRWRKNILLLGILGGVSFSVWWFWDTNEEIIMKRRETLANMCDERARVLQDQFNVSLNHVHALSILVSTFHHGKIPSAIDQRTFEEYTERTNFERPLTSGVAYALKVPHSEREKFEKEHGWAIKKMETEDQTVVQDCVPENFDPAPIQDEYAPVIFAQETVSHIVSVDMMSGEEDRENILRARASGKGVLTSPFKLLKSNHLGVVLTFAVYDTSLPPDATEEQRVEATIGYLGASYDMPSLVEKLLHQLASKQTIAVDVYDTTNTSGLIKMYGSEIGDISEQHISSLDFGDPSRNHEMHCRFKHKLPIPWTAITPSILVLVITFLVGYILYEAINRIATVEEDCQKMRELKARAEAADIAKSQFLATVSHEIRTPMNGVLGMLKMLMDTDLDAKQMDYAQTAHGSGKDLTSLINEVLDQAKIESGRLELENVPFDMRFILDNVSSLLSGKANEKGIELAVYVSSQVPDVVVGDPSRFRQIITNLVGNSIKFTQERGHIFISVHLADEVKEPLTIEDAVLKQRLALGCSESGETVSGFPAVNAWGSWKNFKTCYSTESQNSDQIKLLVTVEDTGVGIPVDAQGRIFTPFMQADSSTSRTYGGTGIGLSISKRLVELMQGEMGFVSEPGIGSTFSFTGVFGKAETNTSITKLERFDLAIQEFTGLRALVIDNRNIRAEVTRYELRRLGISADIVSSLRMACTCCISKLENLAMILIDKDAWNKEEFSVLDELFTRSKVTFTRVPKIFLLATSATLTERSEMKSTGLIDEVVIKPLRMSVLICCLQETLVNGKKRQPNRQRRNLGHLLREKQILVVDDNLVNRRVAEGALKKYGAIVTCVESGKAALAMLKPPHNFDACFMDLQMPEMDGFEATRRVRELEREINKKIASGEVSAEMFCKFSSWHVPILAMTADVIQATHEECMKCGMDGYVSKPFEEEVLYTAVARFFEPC
Description: (§1) A culture solution 10 μl (about 800 clones of yeast) of the transformed cells TM182-CRE1, TM182-AHK2, TM182-AHK2Δ and TM182-AHK3 produced by the example 12 was spotted on DOLU+Glu agar media containing 10 μM of trans-zeatin and cultured at 30° C. for 30 hours. After incubation, the growth state of the transformed cells was observed and photographed by a digital camera.
(§2) Culture solutions of the transformed cells TM182-CRE1, TM182-AHK2Δ and TM182-AHK2 produced by the reference example 1 were spotted on DOLU+Glu agar media containing cytokinin in a variety of concentrations (1 nM, 10 nM, 100 nM, 1 μM, 10 μM, 100 μM) and cultured at 30° C. for 30 hours. After incubation, the growth state of the transformed cells was observed and photographed by a digital camera.

cytokinin receptor AHK2Δ = molecular target: T2, cytokinin receptor AHK2Δ (Arabidopsis thaliana, UniProt Q9C5U2); details: TM182-AHK2Δ, DOLU+Glu agar, 1 nM to 100 μM tested, 30° C. for 30 hours
T2 sequence (Q9C5U2 196-1176): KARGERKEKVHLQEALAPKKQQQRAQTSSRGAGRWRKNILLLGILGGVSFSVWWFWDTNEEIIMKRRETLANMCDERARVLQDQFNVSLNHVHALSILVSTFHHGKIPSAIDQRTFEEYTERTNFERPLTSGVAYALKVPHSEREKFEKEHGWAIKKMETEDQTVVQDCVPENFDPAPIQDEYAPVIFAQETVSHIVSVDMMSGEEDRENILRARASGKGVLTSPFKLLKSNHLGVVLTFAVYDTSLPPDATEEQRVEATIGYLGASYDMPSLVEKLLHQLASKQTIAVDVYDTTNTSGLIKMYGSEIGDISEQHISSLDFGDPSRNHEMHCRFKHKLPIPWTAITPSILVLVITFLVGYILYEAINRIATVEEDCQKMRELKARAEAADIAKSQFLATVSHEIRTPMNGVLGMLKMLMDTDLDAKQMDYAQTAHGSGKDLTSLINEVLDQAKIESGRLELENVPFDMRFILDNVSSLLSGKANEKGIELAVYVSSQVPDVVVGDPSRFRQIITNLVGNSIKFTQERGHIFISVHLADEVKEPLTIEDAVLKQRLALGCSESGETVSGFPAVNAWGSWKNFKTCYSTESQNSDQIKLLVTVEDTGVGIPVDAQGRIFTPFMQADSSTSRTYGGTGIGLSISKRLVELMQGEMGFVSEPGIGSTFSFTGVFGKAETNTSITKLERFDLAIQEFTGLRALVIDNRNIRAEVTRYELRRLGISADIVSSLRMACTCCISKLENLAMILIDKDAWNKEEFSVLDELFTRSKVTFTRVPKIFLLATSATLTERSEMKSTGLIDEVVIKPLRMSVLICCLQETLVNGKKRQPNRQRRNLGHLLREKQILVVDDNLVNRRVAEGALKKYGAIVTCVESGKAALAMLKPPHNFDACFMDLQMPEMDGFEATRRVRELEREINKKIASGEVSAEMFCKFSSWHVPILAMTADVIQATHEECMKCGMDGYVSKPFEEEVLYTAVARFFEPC
Description: as §1, §2

cytokinin receptor CRE1 = cytokinin receptor CRE1 (Arabidopsis thaliana, UniProt Q9C5U0, S567G/T1018A); details: TM182-CRE1, DOLU+Glu agar, 1 nM to 100 μM tested, 30° C. for 30 hours
Description: as §1, §2

Chain of cytokinin receptor CRE1 (Q9C5U0 24-1080 S567G/T1018A): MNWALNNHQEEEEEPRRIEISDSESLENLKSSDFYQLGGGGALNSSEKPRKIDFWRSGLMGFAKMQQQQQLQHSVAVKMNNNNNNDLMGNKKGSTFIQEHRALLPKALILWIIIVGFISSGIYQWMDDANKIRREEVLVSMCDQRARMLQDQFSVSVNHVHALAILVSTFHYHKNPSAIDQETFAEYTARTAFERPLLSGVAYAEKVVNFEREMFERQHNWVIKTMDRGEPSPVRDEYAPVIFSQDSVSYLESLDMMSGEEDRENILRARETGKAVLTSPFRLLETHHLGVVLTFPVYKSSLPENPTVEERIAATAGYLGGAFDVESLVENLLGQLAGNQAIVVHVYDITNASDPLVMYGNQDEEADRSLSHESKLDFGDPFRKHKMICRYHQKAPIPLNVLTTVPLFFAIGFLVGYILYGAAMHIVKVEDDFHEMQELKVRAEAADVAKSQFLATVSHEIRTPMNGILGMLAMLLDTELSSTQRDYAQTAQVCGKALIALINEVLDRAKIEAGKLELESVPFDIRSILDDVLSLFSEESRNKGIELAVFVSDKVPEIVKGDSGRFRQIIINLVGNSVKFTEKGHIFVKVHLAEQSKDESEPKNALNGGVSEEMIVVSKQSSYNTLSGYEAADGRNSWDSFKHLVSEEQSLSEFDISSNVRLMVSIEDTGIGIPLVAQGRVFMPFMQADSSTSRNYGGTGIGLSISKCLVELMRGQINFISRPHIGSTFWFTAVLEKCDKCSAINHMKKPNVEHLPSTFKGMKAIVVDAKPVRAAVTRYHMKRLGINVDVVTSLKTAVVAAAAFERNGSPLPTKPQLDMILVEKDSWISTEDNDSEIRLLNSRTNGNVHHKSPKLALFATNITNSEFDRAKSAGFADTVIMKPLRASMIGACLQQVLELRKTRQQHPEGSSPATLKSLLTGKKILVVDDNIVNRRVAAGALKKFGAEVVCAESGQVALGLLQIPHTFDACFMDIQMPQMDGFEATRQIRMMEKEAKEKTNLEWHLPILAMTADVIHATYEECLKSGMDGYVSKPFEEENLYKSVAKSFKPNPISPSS

lowest observed supply concentration in which the transformed cells could be grown (cytokinin receptor AHK2): 10 µM
lowest observed supply concentration in which the transformed cells could be grown (cytokinin receptor AHK2Δ): 1 µM
lowest observed supply concentration in which the transformed cells could be grown (cytokinin receptor CRE1): no growth
Structure (SMILES): C/C(=C/CNc1ncnc2nc[nH]c12)CO [cis-zeatin]
